Measurements taken from US10578610B2, “Peptide regulators of mitochondrial fusion and methods of use” (priority 2016, dated 2020).
Ends that are not written are not given here.

Assays:
Opa1 and Drp1 = assay: Immunoblot analysis of mitochondrial dynamics proteins in MEFs; type: cell-based, murine; details: immunoblot 4 hours after application to MEFs; data not shown
hMfn2 = target: T1, hMfn2 (Homo sapiens, UniProt O95140); assay: Mfn2 FRET assay in live cells; type: cell-based; details: 5 μM TAT-minipeptide, data not shown
T1 construct: expressed in transfected cells; host or cells: FMK 293T cells (so in the source), Lipofectamine-transfected, pcDNA3.1
T1 sequence (O95140 1-757): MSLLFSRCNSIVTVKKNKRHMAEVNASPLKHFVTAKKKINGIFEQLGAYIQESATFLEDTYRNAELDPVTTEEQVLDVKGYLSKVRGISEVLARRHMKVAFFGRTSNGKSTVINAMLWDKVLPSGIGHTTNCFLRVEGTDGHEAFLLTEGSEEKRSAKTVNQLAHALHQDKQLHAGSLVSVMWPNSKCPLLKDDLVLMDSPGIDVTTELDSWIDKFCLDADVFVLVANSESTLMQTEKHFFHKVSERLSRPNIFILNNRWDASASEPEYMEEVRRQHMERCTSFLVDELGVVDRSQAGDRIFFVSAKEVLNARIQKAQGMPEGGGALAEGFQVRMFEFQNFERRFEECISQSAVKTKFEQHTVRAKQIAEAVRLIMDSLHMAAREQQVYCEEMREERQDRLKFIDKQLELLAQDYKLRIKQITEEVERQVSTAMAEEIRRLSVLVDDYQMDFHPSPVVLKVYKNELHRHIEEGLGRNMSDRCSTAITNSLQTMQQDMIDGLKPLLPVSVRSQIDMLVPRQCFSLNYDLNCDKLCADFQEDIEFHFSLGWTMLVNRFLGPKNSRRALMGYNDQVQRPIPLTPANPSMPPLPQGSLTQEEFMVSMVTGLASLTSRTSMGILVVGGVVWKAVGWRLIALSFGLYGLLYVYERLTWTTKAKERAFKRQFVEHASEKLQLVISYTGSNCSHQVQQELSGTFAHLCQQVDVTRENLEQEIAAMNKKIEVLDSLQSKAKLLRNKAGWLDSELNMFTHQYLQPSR
Procedure: mCerulean1 and mVenus were cloned onto the 5′ and 3′ ends of hMfn2 cDNA in pcDNA3.1 and confirmed by DNA sequencing. Lipofectamine-transfected biosensor-expressing FMK 293T cells were imaged on an Olympus IX81 ZDC inverted microscope under 40× magnification. mCerulean was excited at 436 nm with emission at 480 nm. mVenus was excited at 500 nm with emission at 535 nm. FRET was imaged with excitation at 436 nm and emission at 535 nm. Studies were performed after adding GTP[…]S (1 mM, Sigma-Aldrich) to suppress Mfn2 GTPase activity. Live cell FRET data were acquired as described (Spiering et al., 2013, Methods Cell Biol, 114:593-609) every 60 seconds for 15 minutes before and 90 minutes after addition of TAT-minipeptides (5 µM).

MEFs = assay: Mitochondrial fusion by mixing of organellar contents after PEG-mediated cell fusion; type: cell-based, murine; details: 1 μM for 6 hours
Procedure: MEFs or neurons were grown on chamber slides and infected with recombinant adenoviri for 48-72 hours unless otherwise indicated. MEFs were stained with MitoTracker Green (200 nM, Invitrogen M7514) and Blue Hoechst (10 mg/ml, Invitrogen H3570), with or without tetramethylrhodamine ethyl ester (TMRE; 200 nM, Invitrogen T-669). Neuronal mitochondria were labeled with adenoviral-expressed mitoGFP plus TMRE, or with adeno-mitoDsRed for time-lapse studies. […] Mitochondrial fusion was measured at 2 and 6 hours after PEG-mediated cell fusion of MEFs treated 48 hours previously with adeno-mitoGFP or adeno-mitoDsRed (Chen et al., 2005, J Biol Chem, 280:26185-26192). Laser confocal fluorescence was excited with 561 nm (MitoTracker Green, GFP, FITC), 637 nm (TMRE, LysoTracker Red, mcherry-Parkin, MitoTracker Orange) or 408 nm (Blue Hoechst) laser diodes. Image analysis—Mitochondrial aspect ratio was calculated using automated edge detection and Image J software (Song et al., 2015, Cell Metab, 21:273-285). Mitochondrial depolarization was calculated as % of green mitochondria visualized on MitoTracker Green and TMRE merged images, expressed as green/(green+yellow mitochondria)×100. Parkin aggregation was calculated as % of cells with mitochondrial clumping of mcherry-Parkin (Song et al., 2015, Cell Metab, 21:273-285). […]

human Mfn2 = target: T2, human Mfn2 (Homo sapiens, UniProt O95140); assay: Carboxypeptidase protection assay on mitochondrial membranes; type: biochemical; parameters: from tissue; host or cells: mitochondrial membranes of transgenic mouse hearts overexpressing human Mfn2; details: 200 ng/ml carboxypeptidases A and B; mouse heart mitochondrial membranes overexpressing human Mfn2
T2 sequence (O95140 1-757): T1 sequence (O95140 1-757)
Procedure: Mitochondrial membranes were prepared (Song et al., 2015, Cell Metab, 21:273-285) from mouse hearts overexpressing human Mfn2 (Gong et al., 2015, Science, 350:aad2459) and digested with 200 ng/ml each carboxypeptidases A and B (Sigma-Aldrich) for increasing times at room temperature, followed by immunoblotting using an antibody (Abcam ab56889) specific to hMfn2 HR2.

QDRLKFIDKQGELLAQDYKLRGGYGRKKRRQRRR [TAT-398-418Gly]
abundance of Opa1 and Drp1 (Opa1 and Drp1): without altering Mfn2 GTPase activity or influencing the abundance | FRET of hMfn2 tagged with mCerulean1 and mVenus (hMfn2): increased | rate of mitochondrial content mixing (mitochondrial fusion) (MEFs): completely suppressed mitochondrial fusion | carboxyl terminal-directed proteolytic digestion of Mfn2 (exposure of C-terminal HR2 domain) (human Mfn2): had the opposite effect

QIAEAVRGIMDSLHMAARGGYGRKKRRQRRR [TAT-367-384Gly]
abundance of Opa1 and Drp1 (Opa1 and Drp1): without altering Mfn2 GTPase activity or influencing the abundance | FRET of hMfn2 tagged with mCerulean1 and mVenus (hMfn2): had the opposite effect | rate of mitochondrial content mixing (mitochondrial fusion) (MEFs): more than doubled | carboxyl terminal-directed proteolytic digestion of Mfn2 (exposure of C-terminal HR2 domain) (human Mfn2): accelerated carboxyl terminal-directed proteolytic digestion of Mfn2
